Common to all, as to assay type: biochemical
Assay [1] concerns the target T1, K18PL tau (Homo sapiens, UniProt P10636, P618L).
T1 construct: (K18PL; amino acids 244-369); made in house
Nature of the assay: K18PL tau centrifugation (sedimentation) assay, SDS-PAGE densitometry. The settings on record: Table 3; K18PL tau centrifugation assay. The essentials: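 Heparin-induced fibrillization of K18PL tau in sodium acetate buffer with test compound; mixtures were centrifuged and soluble versus insoluble K18PL quantified by SDS-PAGE densitometry. A repeat run centrifuged DMSO- and compound-treated mixtures for 30 min at time zero to remove pelletable material before incubation.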

In a further assay the target is T2, Aβ(1-42) (Homo sapiens, UniProt P05067).
T2 construct: Synthetic Aβ(1-42) peptide (rPeptide); purchased rPeptide
In words: Aβ(1-42) fibrillization assay (ThT). The settings on record: Table 3; highest tested concentration (80 μM); read-out: Aβ42 ThT Assay % Inhib.

Assay [2] concerns the target T1, K18PL tau. In words: Heparin-induced K18PL tau fibrillization assay monitored by ThT fluorescence. The settings on record: Table 3. The essentials:
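K18PL (30 μM stock, with 0.24 μM Alexa Red-labeled K18PL) plus 40 μM heparin and compound, fibrillized 6 h at 37 °C. Fibrils read by ThT (12.5 μM final, in 100 mM glycine pH 8.5, 1 h RT), ex 450/em 510 nm. Percent inhibition scaled between DMSO wells and non-fibrillizing K18 KD control wells.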

In another assay the target is T3, Tau40 (Homo sapiens, UniProt P10636).
T3 construct: Full length tau (Tau40; amino acids 1-441); made in house
Nature of the assay: SEC of Tau40 fibrillization post-centrifugation supernatants. The settings on record: tau40 fibril assembly with 5b relative to untreated fibrillization reaction, FIG. 2. Here is the method: Tau40 (50 μM) and heparin (20 μM) were incubated in a PCR tube with or without the compound 5b (100 μM) at 37° C. for 5 days in a final volume of 100 μl of […] sodium acetate buffer, pH 7.0. In the absence of compound, tau40 fibrillization is complete under these conditions, as determined by ThT fluorescence and centrifugation assays. A non-assembly control reaction was also prepared as above with Tau40 and 5b in the absence of heparin. The completed reactions were centrifuged at 40,000 g for 30 minutes to sediment fibrils and the supernatants were applied to a Superdex 200 10/300 column (GE Healthcare) employing an Äkta Basic FPLC unit (GE Healthcare) with a flow rate of 0.4 ml/minute. Tau elution was monitored by absorbance at 280 nm. Under these chromatography conditions, monomeric tau can be separated from oligomeric species (Li, W. K. and Lee, V. M. Y. (2006) Biochemistry 45, 15692-15701).

T1 sequence (P10636 561-686 P618L): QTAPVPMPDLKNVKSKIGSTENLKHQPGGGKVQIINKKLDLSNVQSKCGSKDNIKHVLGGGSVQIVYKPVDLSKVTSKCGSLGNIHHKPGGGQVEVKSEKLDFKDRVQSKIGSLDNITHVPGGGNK
T3 sequence (P10636 1-441 isoform P10636-8): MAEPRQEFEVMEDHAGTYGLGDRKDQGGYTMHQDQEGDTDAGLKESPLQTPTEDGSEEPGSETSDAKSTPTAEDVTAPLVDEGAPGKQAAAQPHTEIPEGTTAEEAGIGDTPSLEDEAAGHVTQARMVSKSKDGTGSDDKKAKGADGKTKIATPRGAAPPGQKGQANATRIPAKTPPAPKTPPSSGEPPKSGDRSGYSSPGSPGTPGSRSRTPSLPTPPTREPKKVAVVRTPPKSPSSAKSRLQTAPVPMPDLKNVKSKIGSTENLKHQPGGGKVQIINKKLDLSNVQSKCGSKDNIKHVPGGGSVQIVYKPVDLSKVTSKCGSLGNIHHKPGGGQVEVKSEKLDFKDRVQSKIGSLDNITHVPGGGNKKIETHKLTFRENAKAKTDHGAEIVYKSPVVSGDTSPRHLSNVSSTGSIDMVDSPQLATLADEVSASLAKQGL
T2 sequence (P05067 672-713 limits assumed): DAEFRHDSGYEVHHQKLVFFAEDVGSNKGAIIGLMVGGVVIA

For `CCOC(=O)c1nn(-c2ccc(OC)cc2)c(=O)c2c(N)scc12` [Compound 5b], at K18PL tau [1], the “Tau Cent. Assay % Soluble” value is 64%. The inhibition at 80 µM on Aβ(1-42) was determined as 28%; at K18PL tau [2] (highest tested concentration (80 μM), read-out: Tau ThT Assay % Inhib.), 86%. Further, the IC50 (commonly the concentration needed to halve the response being measured) on K18PL tau [2] (logarithm of IC50, K18PL tau ThT fluorescence inhibition, NC = not calculated due to insufficient activity, read-out: Tau ThT Assay Log IC50 (converted)) was 5.01 µM. On Tau40, the “Monomeric tau in post-centrifugation supernatant (SEC)” value is “appreciable increase in the amount of monomeric tau”.

Values taken from patent publication US20130029983A1, “AMINOTHIENOPYRIDAZINE INHIBITORS OF TAU ASSEMBLY” (priority 2009, published 2013).
